# Experiments:
# [1] = system: FoxP3+/CD4+ T-cells in splenocytes from naïve C57BL/6 mice; experiment: In vitro dose-response, percent FoxP3+/CD4+ T-cells in murine splenocytes; assay type: cell-based
# Procedure: All animal studies were conducted under IACUC number B2020-91 and in compliance with Tufts University/Tufts Medical Center & Human Nutrition Research Center on Aging. Animals were housed four in a cage and had access to food and water ad libitum. Anti-FoxP3 and anti-CD4 for flow cytometry were obtained from eBioscience. Compounds 1-3 were formulated with 10% DMPC in PBS. PS liposomes were synthesized at a 30:70 PS:lipid molar ratio.
# Splenocytes from naïve C57BL/6 mice were stained with CFSE, seeded at 2×10^5 cells/well, and dosed with each compound from 1e^−4 μM to 3.0e^−9 μM using a log 2 dilution scheme. Cells were incubated for 72 hours before phenotyping for FoxP3+/CD4+ T-cells. Flow cytometer analysis was performed to assess changes in percent FoxP3+/CD4+ T-cells as a function of compound and dose. Concentration versus response was fitted to a 4-parameter, log-logistic model using the “dre” package in “R”. Both EC50 and EC90 were obtained by model fitting.
# Cells were observed via a microscope at the end of the incubation period. All cells looked healthy and suitable for flow cytometry analysis.
# Table 2 summarizes EC50 and EC90 values obtained from the model fitting.
# [2] = system: MOG35-55-induced murine EAE model; experiment: MOG35-55-induced murine EAE model versus standards of care (Example 4); assay type: in vivo, mice
# Procedure: Experimental autoimmune (allergic) encephalomyelitis (EAE) is considered the best non-clinical model of multiple sclerosis (MS). EAE is characterized by immune responses against CNS tissue and can be induced in animals by immunizing them against proteins of the CNS. In the active EAE model, mice are immunized with MOG35-55 peptide emulsified in Complete Freund's Adjuvant (CFA) by subcutaneous injection at the tail base (0.1 mL of emulsion/mouse) under anesthesia. On the day of injection (Day 0) and 2 days later, mice receive an intraperitoneal injection of Pertussis Toxin (PT) in PBS at 600 ng/mouse/dose (0.1 mL).
# Symptoms typically develop in mice 9-14 days after immunization (Day 0). Daily observation and scoring of mice start on Day 9 and continue until the end of the study. Table 5 details the expected clinical symptoms and the scoring criteria used in this study.
# To evaluate the therapeutic effects of Compound 2, treatment was initiated after the first clinical symptoms were observed. […] Mice in all groups were monitored and scored daily for clinical symptoms.
# At the end of the study, spleens were collected from a representative sample of mice from each group for splenocyte analysis. A single-cell suspension was prepared for cellular phenotyping by flow cytometry. Cells were stained and gated for CD4+ T-cells. Percent FoxP3+/CD4+ T-cells were evaluated by flow cytometry.
# [3] = system: Foxp3+/CD4+ T-cells of MS patients; experiment: PBMCs of multiple sclerosis patients treated ex vivo; assay type: cell-based, human; conditions: up to 2.5 μM, five days, six subjects
# Procedure: Total human PBMCs were isolated from six subjects with confirmed diagnosis of MS. On Day 0, 2×10^5 cells/well were incubated in a 96 round bottomed-well plate alone or with up to 2.5 μM Compound 2 for five days. On Day 5, cells were collected, washed and stained for surface staining (CD3, CD4), then viability dye to exclude dead cells. Intranuclear staining was performed after cell fixation and permeabilization for transcription factor FoxP3. Cells were washed and fixed for acquisition by Attune NXT flow cytometer. Data were analyzed by FlowJov10.
# [4] = system: MOG35-55-induced murine EAE model; experiment: Induction/maintenance treatment paradigm in MOG35-55-induced murine EAE model (Example 9); assay type: in vivo, mice
# Procedure: Compound 2, natalizumab and DMF were prepared as described in Example 8. Table 5 (see Example 4) details the expected clinical symptoms and scoring criteria used in this study.
# This study was designed to evaluate the therapeutic effects of Compound 2 versus natalizumab in a treatment induction/maintenance paradigm (induction cohort), and Compound 2 versus DMF after natalizumab (maintenance cohort). In the induction cohorts, animals were randomized 2:1:1 natalizumab:Compound 2:control when they reached a score of 2.5, as per FIG. 6A. Animals in the natalizumab cohort were given 100 μg natalizumab/mouse every 3 days for 3 doses before being randomized to the maintenance cohort. Animals randomized into the maintenance cohort after natalizumab received maintenance doses of DMF or Compound 2 (1:1 randomization), as per their group assignment for 14 days. Animals in the Compound 2 induction cohort were dosed with 30 μg Compound 2/mouse SC QD for a maximum of 7 days, or 3 consecutive days of disease score <2.5, at which time they were placed on a maintenance dose of 3 μg/mouse SC QD for 14 days. All animals in all groups were monitored for 14 days after the last dose for disease score and survival.
# Disease control (induction therapy): Disease control was defined as maintaining a clinical score of 2.5 or less after randomization. Animals in the different treatment groups were monitored after the 2:1:1 randomization. Clinical scores were recorded daily for all animals and plotted over time. A score of >2.5 was recorded as an event and analyzed by survival analysis in GraphPad Prism 9. Animals not reaching a clinical score of 2.5 by the end of the induction period (day 7) were assigned a score of zero for the survival analysis.
# Survival (induction therapy): Death due to disease (clinical score 5) during the treatment induction period was recorded as an event “1”, animals surviving until the end of the induction period, day 7 after randomization, were censored on day 7 for the purposes of survival analysis.
# Disease control (maintenance therapy): At the end of the induction period with natalizumab, animals were randomized 1:1 to the DMF maintenance group or Compound 2 maintenance group as per FIG. 6A. Animals were dosed for 14 days, and clinical scores were monitored daily.
# Survival (maintenance therapy): Death by disease (clinical score of 5) was recorded as an event “1”, death due to ulceration or ex vivo analysis was recorded as “0”. Animals surviving until the end of the study were recorded as “0” on the last day of the study. Survival analysis was done in GraphPad Prism 9.
# [5] = Mus musculus, T-cell, percent FoxP3+/CD4+ T-cells, 72 hours, 4-parameter log-logistic model fit
# [6] = Compound 2 induction followed by Compound 2 maintenance
structure (smiles),measurement,setting,value
"N[C@@H](CNC(=O)Cc1ccc(OCc2cccc3ccccc23)cc1)C(=O)O [Compound 2, (S)-2-Amino-3-(2-(4-(naphthalen-1-ylmethoxy)phenyl)acetamido)propanoic acid]",EC50,[1]; [5],6.02 pM
same,EC90,[1]; [5],19.9 pM
same,"mean FoxP3+/CD4+ T-cells, upper plateau, mean (SEM)","[1]; high dose, from model fitting",4.54 (0.14) %
same,dose-response behaviour of FoxP3+/CD4+ T-cells,[1]; in words,showed a clear plateau
same,"mean FoxP3+/CD4+ T-cells, lower plateau, mean (SEM)","[1]; low dose, from model fitting",2.20%
same,disease control after switching from anti-alpha4 integrin,[2]; 10-μg oral dose following one or two injections of anti-alpha4 integrin,resulted in disease control after disease onset
same,control of MS symptoms after disease onset versus glatiramer acetate,[2]; all doses and regimens,more effective than glatiramer acetate
same,control of MS symptoms after disease onset versus anti-alpha4 integrin,[2]; daily 10-μg oral dose,as effective as a full regimen of anti-alpha4 integrin
same,MS clinical score after disease onset,"[2]; doses of Table 6, treatment from clinical score 1",reduced the MS clinical score after disease onset in a dose-dependent manner
same,MS patients whose T-cells responded (increase in percentage of Foxp3+/CD4+ T-cells),[3],five out of six
same,clinical score on the last day of dosing,[4]; [6],2.2 (SD=0.3)
same,mean score on the first day of maintenance therapy,[4]; [6],2.3 (SD=0.4)
same,mice showing clinical score improvement and switched to maintenance before end of induction period,[4]; induction period,at least 4 out of the 10
same,animals that survived the treatment induction period,"[4]; induction period, day 7 after randomization",9/9
same,"last measured score, day 7 after initiation of maintenance",[4]; maintenance after natalizumab induction,2.5 (SD=0)
same,mortality rate in maintenance cohort,"[4]; maintenance after natalizumab induction, n=4 in each group",0%
same,survival in maintenance cohort,"[4]; maintenance after natalizumab induction, to end of study",All animals randomized to Compound 2 maintenance after natalizumab induction survived until the end of the study
same,mean clinical score by day 7 of induction,"[4]; randomized at score 2.5, Compound 2 30 μg SC",2.25 (SD=0.26)
same,animals that progressed to a clinical score >2.5 during induction,"[4]; randomized at score 2.5, natalizumab 100 μg/mouse every 3 days, Compound 2 30 μg SC",0/10
